Test results from patent US9210935B2, “Pesticide composition comprising fosetyl-aluminium, propamocarb-HCl and an insecticide active substance” (BAYER INTELLECTUAL PROPERTY GMBH, priority 2006, dated 2015).

How the values were obtained:
Type in all cases: in vivo
[1] = tested on: larvae of the diamond black moth Plutella xylostella; test: Plutella xylostella test (cabbage leaf dip, mortality); details: mortality after 6 days, cabbage leaves dipped
[2] = tested on: larvae of the fall army worm (Spodoptera frugiperda); test: Spodoptera frugiperda test (cabbage leaf dip, mortality); details: mortality after 4 days, cabbage leaves dipped
[3] = tested on: larvae of the beet army worm (Spodoptera exigua); test: Spodoptera exigua test (cabbage leaf dip, mortality); details: mortality after 4 days, cabbage leaves dipped

Work on `O=[N+]([O-])NC1=NCCN1Cc1ccc(Cl)nc1` [imidacloprid] yielded an Efficacy ([1]; rate of application 100 ppm) of 15%.

With `CN/C(=N\[N+](=O)[O-])NCc1cnc(Cl)s1` [clothianidin] the Efficacy ([2]; rate of application 4 ppm) was 50%.

For `N#C/N=C1\SCCN1Cc1ccc(Cl)nc1` [thiacloprid], the Efficacy ([2]; rate of application 20 ppm) was 0%.

`CCCOC(=O)NCCCN(C)C.Cl` [propamocarb-HCl, propyl[3-(dimethylamino)propyl]carbamate hydrochloride] gave an Efficacy ([1]; rate of application 200 ppm) of 0%, an Efficacy ([2]; rate of application 200 ppm) of 10% and an Efficacy ([3]; rate of application 200 ppm) of 0%.

For `CN1COCN(Cc2cnc(Cl)s2)/C1=N\[N+](=O)[O-]` [thiamethoxam], the Efficacy ([3]; rate of application 20 ppm) was 0%.
